This is an account of results in US6352976B1, “Selective inhibitors of MMP-12” (Aventis Pharmaceuticals Inc., priority 1998, dated 2002).

The structures appear in SMILES notation. Structures can show the parent of a compound that is named as a salt.

The target of assay [1] is T1, MMP-2 (Homo sapiens, UniProt P08253).
T1 construct: made in house; host or cells: Pichia pastoris (strains KM71 / SMD1168, clone 24S; vector pHIL-D2)
T1 sequence (P08253 110-660): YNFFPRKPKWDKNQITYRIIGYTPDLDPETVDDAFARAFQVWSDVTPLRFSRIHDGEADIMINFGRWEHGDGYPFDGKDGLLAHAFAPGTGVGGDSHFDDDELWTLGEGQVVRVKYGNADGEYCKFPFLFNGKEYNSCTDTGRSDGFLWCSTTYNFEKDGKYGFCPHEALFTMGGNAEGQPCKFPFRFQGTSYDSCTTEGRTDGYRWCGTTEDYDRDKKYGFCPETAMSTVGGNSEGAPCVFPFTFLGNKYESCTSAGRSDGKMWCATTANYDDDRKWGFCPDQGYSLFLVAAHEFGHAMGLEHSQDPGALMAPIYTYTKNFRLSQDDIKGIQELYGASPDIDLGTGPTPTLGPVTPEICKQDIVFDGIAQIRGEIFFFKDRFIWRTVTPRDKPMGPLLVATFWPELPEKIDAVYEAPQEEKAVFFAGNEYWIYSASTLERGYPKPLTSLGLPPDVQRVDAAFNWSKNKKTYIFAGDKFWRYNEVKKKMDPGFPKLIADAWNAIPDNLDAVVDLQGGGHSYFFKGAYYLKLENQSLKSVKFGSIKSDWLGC
The experiment in a line: Determination of inhibition constant (Ki) for MMP-2, fluorogenic substrate. The class given is biochemical. The note with it: pH 7.6. The text has this: Recombinant MMP-2 was purified from the fermentation broth of yeast Pichia pastoris that carries the integrated MMP-2 gene into its chromosome. In brief, the full-length cDNA for MMP-2 was obtained by reverse transcription of RNA from human melanoma A375M cell line by the reverse transcriptase polymerase chain reaction (RT-PCR) using sequence specific oligonucleotides. The nucleotide sequence was confirmed by Taq cycle sequencing. The cDNA was ligated into the Pichia pastoris expression vector pHIL-D2 in such a way that the expression of pro-MMP-2 is under the control of the methanol inducible alcohol oxidase promoter. The expression construct was digested with either SalI or NsiI and used to transform the Pichia pastoris strains KM71 and SMD1168. A large-scale culture of a selected clone designated 24S was performed in a high cell density fermentor and the recombinant MMP-2 was purified from the culture supernatant by gelatin-sepharose 4B (Pharmacia). The enzyme is sufficiently pure at this stage for routine measurement of inhibition. If desired, however, the enzyme may be further purified by AcA 44 gel filtration (Spectra).
The active MMP-2 was obtained by activation of proMMP-2 at 37° C. for 1 h with 4-aminophenylmercuric acetate which was then removed by a Sephadex G-50 spin column. The enzyme is assayed using a fluorogenic substrate, Mca-Pro-Leu-Gly-Leu-Dpa-Ala-Arg-NH2, at 37° C. in 2.0 mL of assay buffer containing 50 mM Tris, pH 7.6, 0.2 M sodium chloride, 50 mM calcium chloride, 0.02% Brij-35, and 50 μM β-mercaptoethanol. The increase in fluorescence is monitored (λex 328 nm, λem 393 nm). Substrate and inhibitor stock solutions are made in DMF. The enzyme is added at the last to start the reaction. For routine measurement of a Ki value for a reversible, competitive inhibitor, the initial rates in the presence of at least four inhibitor concentrations (two inhibitor concentrations above Ki and two below Ki) are measured using [S]=1 μM (<<Km) and [MMP-2]=0.4 nM. Under these conditions, the measured Ki, app is close to true Ki.

In assay [2] the target is T2, MMP-3 (Stromelysin-1) (Homo sapiens, UniProt P08254).
T2 construct: The active MMP-3 was obtained by treatment of proMMP-3 with trypsin; endogenous in cells; host or cells: human rheumatoid synovial fibroblasts stimulated with macrophage-conditioned medium; secreted proenzyme purified from culture medium
T2 sequence (P08254 100-477): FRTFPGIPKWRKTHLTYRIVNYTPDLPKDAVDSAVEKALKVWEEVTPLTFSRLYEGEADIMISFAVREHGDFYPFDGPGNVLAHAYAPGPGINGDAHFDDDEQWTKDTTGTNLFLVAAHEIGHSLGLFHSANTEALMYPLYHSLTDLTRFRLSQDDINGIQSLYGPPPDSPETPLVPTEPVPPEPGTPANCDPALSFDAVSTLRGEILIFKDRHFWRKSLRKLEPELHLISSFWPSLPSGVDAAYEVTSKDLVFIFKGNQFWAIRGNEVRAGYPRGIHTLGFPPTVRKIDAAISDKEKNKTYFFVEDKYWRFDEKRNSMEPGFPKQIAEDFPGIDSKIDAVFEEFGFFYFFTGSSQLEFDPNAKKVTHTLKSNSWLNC
The experiment in a line: Determination of inhibition constant (Ki) for MMP-3, fluorogenic substrate. The note with it: pH 7.6. The class given is biochemical. Here is the method: ProMMP-3 (EC3.4.24.17; Stromelysin-1) was purified from culture medium of human rheumatoid synovial fibroblasts stimulated with macrophage-conditioned medium according to Okada, Y. et al., J. Biol. Chem. 261, 14245-14255 (1986). The active MMP-3 was obtained by treatment of proMMP-3 with trypsin (5 μg/mL) at 37° C. for 30 minutes, followed by addition of soybean trypsin inhibitor (50 μg/mL). Aliquots of the activated MMP-3 were stored at −20° C.
The activated MMP-3 is assayed using a fluorogenic substrate, Mca-Pro-Leu-Gly-Leu-Dpa-Ala-Arg-NH2, Knight, C. G. et al., FEBS Lett. 296, 263-266 (1992), at 37° C. in an assay buffer containing 50 mM Tris, pH 7.6, 0.2 M sodium chloride, 50 mM calcium chloride, and 0.02% Brij-35. The increase in fluorescence due to cleavage of Gly-Leu peptide bond by MMP-3 was monitored with Perkin-Elmer LS50B Fluorimeter (λex 328 nm, λem 393 nm, excitation slit 2.5, emission slit 10). Substrate and inhibitor stock solutions were made in DMF and 0.1% HCl-DMF, respectively. For determination of Ki values for MMP-3 inhibitors, a series of intermediate inhibitor solutions were prepared in 0.1% HCl-DMF and 1 or 2 μL of the diluted inhibitor solution was mixed with 1 μL of 2 mM substrate solution in DMF in a quartz cuvette containing 2 mL of assay buffer. The enzyme (10 μL of 0.2 μM MMP-3 dilution in assay buffer) was added at the last to start the reaction. For routine measurement of a Ki value for a reversible, competitive inhibitor, the initial rates in the presence of at least four inhibitor concentrations (two concentrations above Ki and two concentrations below Ki) were measured using [S]=1 μM (<<Km) and [MMP-3]=1 nM. Under these conditions, the measured Ki, app is close to true Ki.
The Ki for a competitive inhibitor is calculated using: v0/vi=(1+[I]/Ki, app) and Ki=Ki, app/(1+[S]/Km), where v0 is the initial rate in the absence of inhibitor, vi is the initial rate in the presence of inhibitor at the concentration of [I], [S] is the substrate concentration, and Km is the Michaelis constant. If slow binding is observed (i.e. if the approach to the binding equilibrium is slow), the final steady-state rate rather than the initial rate is taken as vi.

[3] abbreviates: Table 1, Mca-Pro-Leu-Gly-Leu-Dpa-Ala-Arg-NH2, 37° C.

As for `CC(C)C[C@H](NC(=O)[C@@H](S)C(C)C)C(=O)N[C@@H](Cc1ccccc1)C(=O)O` [Example 3, (S)-2-Mercapto-3-methylbutyroyl-(L)-leucyl-(L)-phenylalanine], the Ki came to 784 nM in assay [1] (setting [3]) and 1410 nM in assay [2] (setting [3]).
For `CSCC[C@H](NC(=O)[C@@H](S)C(C)C)C(=O)N[C@@H](Cc1ccccc1)C(=O)O` [Example 4, (S)-2-Mercapto-3-methylbutyroyl-(L)-methionyl-(L)-phenylalanine], in that order: 798 nM and 449 nM.
On the same counts, the results for `CC(C)[C@H](S)C(=O)N[C@@H](CCCCN)C(=O)N[C@@H](Cc1ccccc1)C(=O)O` [Example 5, (S)-2-Mercapto-3-methylbutyroyl-(L)-lysyl-(L)-phenylalanine trifluoroacetic acid salt] are 1740 nM and 1550 nM.
Regarding `CNC(=O)[C@H](Cc1ccccc1)NC(=O)[C@H](CCc1ccccc1)NC(=O)C(S)C(C)C` (stereo partly drawn) [Example 7, (S)-2-Mercapto-3-methylbutyroyl-(L)-homo-phenylalanyl-(L)-phenylalanine N-methyl amide, reference compound], the Ki is 3.3 nM in assay [1] (Table 2 (comparative), method of Example B, 37° C.) and 10 nM in assay [2] (Table 2 (comparative), method of Example C, 37° C.).

A word on the Ki: it is a measure of affinity in units of concentration, obtained from inhibition or displacement. Read a high Ki as lower affinity.
